Data: patent US20250026757A1, “Bicyclic Compounds for the Control of Invertebrate Pests” (BASF SE, priority 2021, published 2025)

Tests used:
Type in all cases: in vivo
Myzus persicae = assay: Green peach aphid (Myzus persicae) systemic test, artificial diet in 96-well microtiter plates; details: 72 h, adult aphids on treated diet, 3 days, read-out: mortality in comparison with untreated controls
Source text: B.1 Green Peach Aphid (Myzus persicae)
For evaluating control of green peach aphid (Myzus persicae) through systemic means, the test unit consisted of 96-well-microtiter plates containing liquid artificial diet under an artificial membrane.
The compounds were formulated using a solution containing 75% v/v water and 25% v/v DMSO. Different concentrations of formulated compounds were pipetted into the aphid diet, using a custom built pipetter, at two replications.
After application, 5-8 adult aphids were placed on the artificial membrane inside the microtiter plate wells. The aphids were then allowed to suck on the treated aphid diet and incubated at about 23±1° C. and about 50±5% relative humidity for 3 days. Aphid mortality and fecundity was then visually assessed.

Aedes aegypti = assay: whole plant or invertebrate; details: 48 h, larval mortality, 2 days, read-out: mortality in comparison with untreated controls
Protocol: B.5 Yellow Fever Mosquito (Aedes aegypti)
For evaluating control of yellow fever mosquito (Aedes aegypti) the test unit consisted of 96-well-microtiter plates containing 200 μl of tap water per well and 5-15 freshly hatched A. aegypti larvae.
The active compounds were formulated using a solution containing 75% (v/v) water and 25% (v/v) DMSO. Different concentrations of formulated compounds or mixtures were sprayed onto the insect diet at 2.5 μl, using a custom-built micro atomizer, at two replications.
After application, microtiter plates were incubated at 28±1° C., 80±5% RH for 2 days. Larval mortality was then visually assessed.

Anthonomus grandis = assay: Boll weevil (Anthonomus grandis) test, eggs on insect diet in 96-well microtiter plates; details: 120 h, egg and larval mortality, 5 days, read-out: mortality in comparison with untreated controls
Protocol: B.3 Boll Weevil (Anthonomus grandis)
For evaluating control of boll weevil (Anthonomus grandis), the test unit consisted of 96-well-microtiter plates containing an insect diet and 5-10 A. grandis eggs.
The compounds were formulated using a solution containing 75% v/v water and 25% v/v DMSO. Different concentrations of formulated compounds were sprayed onto the insect diet at 5 μl, using a custom-built micro atomizer, at two replications.
After application, microtiter plates were incubated at about 25±1° C. and about 75±5% relative humidity for 5 days. Egg and larval mortality was then visually assessed.

Spodoptera eridania = assay: Southern armyworm (Spodoptera eridania), 2nd instar larvae, foliar spray on lima bean plants; details: 96 h, 2nd instar larvae on sprayed lima bean, 4 days after treatment, read-out: mortality in comparison with untreated controls
Protocol: B.4. Southern Armyworm (Spodoptera eridania), 2nd Instar Larvae
The active compounds were formulated by a Tecan liquid handler in 100% cyclohexanone as a 10,000-ppm solution supplied in tubes. The 10,000-ppm solution was serially diluted in 100% cyclohexanone to make interim solutions. These served as stock solutions for which final dilutions were made by the Tecan in 50% acetone:50% water (v/v) into 10 or 20 ml glass vials. A non-ionic surfactant (Kinetic®) was included in the solution at a volume of 0.01% (v/v). The vials were then inserted into an automated electrostatic sprayer equipped with an atomizing nozzle for application to plants/insects. Lima bean plants (variety Sieva) were grown 2 plants to a pot and selected for treatment at the 1st true leaf stage. Test solutions were sprayed onto the foliage by an automated electrostatic plant sprayer equipped with an atomizing spray nozzle. The plants were dried in the sprayer fume hood and then removed from the sprayer. Each pot was placed into perforated plastic bags with a zip closure. Ten to 11 armyworm larvae were placed into the bag and the bags zipped closed. Test plants were maintained in a growth room at about 25° C. and about 20-40% relative humidity for 4 days, avoiding direct exposure to fluorescent light (14:10 light:dark photoperiod) to prevent trapping of heat inside the bags. Mortality and reduced feeding were assessed 4 days after treatment, compared to untreated control plants.

Heliothis virescens = assay: Tobacco budworm (Heliothis virescens) test, eggs on insect diet in 96-well microtiter plates; details: 120 h, egg and larval mortality, 5 days, read-out: mortality in comparison with untreated controls
Protocol: B.2 Tobacco Budworm (Heliothis virescens)
For evaluating control of tobacco budworm (Heliothis virescens), the test unit consisted of 96-well-microtiter plates containing an insect diet and 15-25 H. virescens eggs.
The compounds were formulated using a solution containing 75% v/v water and 25% v/v DMSO. Different concentrations of formulated compounds were sprayed onto the insect diet at 10 μl, using a custom-built micro atomizer, at two replications.
After application, microtiter plates were incubated at about 28±1° C. and about 80±5% relative humidity for 5 days. Egg and larval mortality was then visually assessed.

CCS(=O)(=O)c1cc(N=S(C)(C)=O)cnc1-c1cc(=O)n2c(cc(C(F)(F)F)n2C)n1 [Compound I-2, 5-[5-[[dimethyl(oxo)-λ6-sulfanylidene]amino]-3-ethylsulfonyl-2-pyridyl]-1-methyl-2-(trifluoromethyl)pyrazolo[1,5-a]pyrimidin-7-one]
≥ 75%: mortality at 2500 ppm (Myzus persicae) | mortality at 2500 ppm (Aedes aegypti) | mortality at 2500 ppm (Anthonomus grandis)

CCS(=O)(=O)c1cc(Br)ccc1-c1cc(=O)n2c(cc(C(F)(F)F)n2C)n1 [Compound I-7, 5-(4-bromo-2-ethylsulfonyl-phenyl)-1-methyl-2-(trifluoromethyl)pyrazolo[1,5-a]pyrimidin-7-one]
≥ 75%: mortality at 2500 ppm (Myzus persicae) | mortality at 2500 ppm (Aedes aegypti) | mortality at 300 ppm (Spodoptera eridania)

CCS(=O)(=O)c1cc(Br)cnc1-c1nc2cc(C(F)(F)F)n(C)n2c(=O)c1C [Compound I-16, 5-(5-bromo-3-ethylsulfonyl-2-pyridyl)-1,6-dimethyl-2-(trifluoromethyl)pyrazolo[1,5-a]pyrimidin-7-one]
≥ 75%: mortality at 2500 ppm (Myzus persicae) | mortality at 2500 ppm (Anthonomus grandis)

CCS(=O)(=O)c1cc(-c2ccc(OC(F)F)cc2)cnc1-c1cc(=O)n2c(cc(C(F)(F)F)n2C)n1 [Compound I-4, 5-[5-[4-(difluoromethoxy)phenyl]-3-ethylsulfonyl-2-pyridyl]-1-methyl-2-(trifluoromethyl)pyrazolo[1,5-a]pyrimidin-7-one]
≥ 75%: mortality at 2500 ppm (Myzus persicae) | mortality at 2500 ppm (Heliothis virescens) | mortality at 2500 ppm (Aedes aegypti) | mortality at 300 ppm (Spodoptera eridania) | mortality at 2500 ppm (Anthonomus grandis)

CCS(=O)(=O)c1cc(Br)cnc1-c1cc(=O)n2c(cc(C(F)(F)F)n2C)n1 [Compound I-1, 5-(5-bromo-3-ethylsulfonyl-2-pyridyl)-1-methyl-2-(trifluoromethyl)pyrazolo[1,5-a]pyrimidin-7-one]
≥ 75%: mortality at 2500 ppm (Myzus persicae) | mortality at 2500 ppm (Heliothis virescens) | mortality at 2500 ppm (Aedes aegypti) | mortality at 2500 ppm (Anthonomus grandis)

CCS(=O)(=O)c1cc(-c2ccc(F)cc2)cnc1-c1cc(=O)n2c(cc(C(F)(F)F)n2C)n1 [Compound I-3, 5-[3-ethylsulfonyl-5-(4-fluorophenyl)-2-pyridyl]-1-methyl-2-(trifluoro-methyl)pyrazolo[1,5-a]pyrimidin-7-one]
≥ 75%: mortality at 2500 ppm (Myzus persicae) | mortality at 2500 ppm (Heliothis virescens) | mortality at 2500 ppm (Aedes aegypti) | mortality at 300 ppm (Spodoptera eridania) | mortality at 2500 ppm (Anthonomus grandis)
